Data taken from patent publication US3943154A, “Acylamides of beta-cyano-ethenesulfonyl substituted aminoarenes” (Sanitized Incorporated, priority 1973, dated 1976).
Converted amounts (≈) assume the structure as drawn. Like-named read-outs stand apart in the source and are kept apart here.

Columns and labels:
[1] = system: Bacillus subtilis ATCC 9525; experiment: button assay, antibacterial activity; assay type: cell-based; conditions: 24 hours at 37° C; for MIC: Bacillus subtilis, ATCC9525, lowest concentration showing a clear zone of inhibition, read-out: Antibacterial Activity B.subtilis, minimum inhibitory concentration; for Antibacterial Activity B.subtilis, minimum inhibitory concentration: lowest concentration showing a clear zone of inhibition
Experimental: (§1) In the test program, the minimum inhibitory concentrations of the respective test compounds against various Gram positive and Gram negative bacteria were determined, employing the "button assay" method. The test organisms utilized were standard cultures of Staphylococcus aureus ATCC 6538 DR, a penicillin resistant Gram positive bacterium; Bacillus subtilis ATCC 9525, a spore-forming Gram positive bacillus; and Salmonella typhosa ATCC 6539, a Gram negative bacterium.
(§2) In the tests the respective compounds were dissolved in a suitable solvent, usually acetone or dimethylsulfoxide, to give solutions with known concentrations of active material. The highest concentration was ordinarily 1000 ppm (parts per million) [0.1%], and dilutions were made in suitable steps down to 1 ppm. Penicillin test buttons of filter paper having a diameter of 13 mm (socalled "Peniassay" buttons) were added to each solution within a test tube and left submerged for five minutes. They were then removed and left to dry on paper towels under sterile conditions. A laminar flow sterile cabinet equipped with ultraviolet lamps operating under positive air pressure was utilized for this purpose.
(§3) An 18-24 hour old nutrient broth culture (standard 1.5% nutrient agar) prepared in conventional manner from a slant and having passed through at least three consecutive daily transfers was used for inoculation. Melted and cooled sterile agar (45° C) was inoculated with the respective broth cultures by addition of 20 ml broth per liter of agar. The agar was then dispensed into Petri dishes (20 ml per plate) under sterile conditions and allowed to harden.
(§4) The test buttons were placed on the surface of the hardened agar and the plates incubated for 24 hours at 37° C. Where, on inspection, a clear zone of inhibition appeared around the button, inhibition of growth was presumed. Where growth touched the button there was no inhibition. For each of the test compounds, the lowest concentration showing a clear zone is reported as the inhibitory concentration in the following table.
(§5) The button assay and agar incorporation tests were also utilized to determine the corresponding inhibitory concentrations of various control materials, viz., the following well known commercial antimicrobials and fungicides: hexachlorophene, tribromosalicylanilide, trichlorocarbanilide,Captan (N-(trichloromethylthio)4cyclohexene-1,2-dicarboximide) and Zineb (zinc ethylenebis[dithiocarbamate]). The minimum inhibitory concentration of each of the various control materials against the respective organisms is indicated in Table IV below: […]

[2] = system: Aspergillus niger ATCC 6257; experiment: agar incorporation test, antifungal activity; assay type: cell-based; conditions: lowest concentration showing no growth or sporulation, four days at 28° C; for MIC: Aspergillus niger, ATCC6257, 96 h, read-out: Antifungal Activity A. niger, minimum inhibitory concentration
Experimental: The anti-fungal activity of the test compounds was determined employing the "agar incorporation" technique, utilizing spores from Aspergillus niger ATCC 6257 as a representative organism. Test solutions were prepared as described above in acetone or dimethylsulfoxide. A source of carbon agar such as Mycophil Agar was used. The agar was melted and cooled and placed in a constant temperature water bath at 45° C + 3° C. About 13-14 ml of the agar was then poured into a sterile Petri dish, the required amount of test solution to give the desired concentration immediately added thereto, and the dish rotated and swirled by hand to obtain a uniform mixture before the agar hardened.
The hardened plates were inoculated with the test organism by fishing spores from a 7-14 day old slant with the inocculating needle and spotting the spores on the plates, usually in several places. The inoculated plates were incubated for four days in an incubator maintained at 28° C +2° C and with a relative humidity of 95%+.
The lowest concentration of each test compound showing no growth or sporulation of the test organism was taken as the minimum inhibitory concentration and is reported in the following tabulation.
as §5

[3] = system: Salmonella typhosa ATCC 6539; experiment: button assay, antibacterial activity; assay type: cell-based; conditions: for MIC: Salmonella enterica, read-out: Antibacterial Activity S.typhosa, minimum inhibitory concentration
Experimental: as §1
as §2, with “The” for “In the tests the respective compounds were dissolved in a suitable solvent, usually acetone or dimethylsulfoxide, to give solutions with known concentrations of active material. The”
as §3
as §4, with “table. […]” for “table.”

[4] = system: Staphylococcus aureus ATCC 6538 DR; experiment: button assay, antibacterial activity; assay type: cell-based; conditions: for MIC: Staphylococcus aureus, ATCC6538, 24 h, read-out: Antibacterial Activity S.aureus, minimum inhibitory concentration; for Antibacterial Activity S.aureus, minimum inhibitory concentration: button assay, lowest concentration showing a clear zone of inhibition, 24 hours at 37° C
Experimental: as §1, §2, §3
as §4, with “table. […]” for “table.”

[5] = solubility of the product in solvents; assay type: physicochemical
Experimental: Naphthalene-2,6-disulfonyl chloride (6.2 g, 0.02 mol) is dissolved in 100 ml dimethylformamide; to the solution is added, in 2-3 portions over about a minute, a solution of 3-(4-aminobenzenesulfonyl)acrylonitrile in 50 ml dimethylformamide containing 6 ml triethylamine (8.4 g, 0.04 mol). The temperature rises to 35° C by the exothermic reaction. The reaction mixture is maintained at room temperature for 2 hours and filtered to separate triethylamine hydrochloride therefrom. Addition of chloroform to the filtrate precipitates the product which, after washing with ethanol/water and drying, is in the form of a slightly off-white powder having a melting point of 312° C. […] It is naphthalene-2,6-bis-sulfon-[4-(2-cyanoethenesulfonyl)anilide]: ##SPC42##

[6] = stability of the recovered product; assay type: physicochemical; conditions: recovered by filtration and drying at low temperature under vacuum
Experimental: 10.4 g (0.05 mol) of 2-cyanovinyl 4-aminophenyl sulfone is dissolved in 100 ml of acetone and the solution cooled to 0° C. […] of phosphorus trichloride dissolved in 20 ml of acetone is added dropwise with stirring. After about 40 minutes the reaction mixture is poured into ice water with vigorous stirring. The intermediate initially formed hydrolyzes easily upon the addition of water to form di-4-(2-cyanoethenesulfonyl)anilidophosphine oxide, which can be recovered by filtration and drying at low temperature under vacuum.

[7] = button assay, lowest concentration showing a clear zone of inhibition, 24 hours at 37° C

| Structure (SMILES) | MIC [1] [µg/mL] | MIC [2] [µg/mL] | MIC ([3]; 24 h) [µg/mL] | MIC [4] [µg/mL] | solubility in dimethylformamide and dimethylsulfoxide ([5]; dimethylformamide, dimethylsulfoxide) | solubility in ethanol, chloroform and acetone ([5]; ethanol, chloroform, acetone) | Antibacterial Activity B.subtilis, minimum inhibitory concentration [1] | Antifungal Activity A. niger, minimum inhibitory concentration [2] | Antibacterial Activity S.typhosa, minimum inhibitory concentration [3, 7] | Antibacterial Activity S.aureus, minimum inhibitory concentration [4] [ppm] | MIC [3, 7] [µg/mL] | stability of the product [6] |
| --- | --- | --- | --- | --- | --- | --- | --- | --- | --- | --- | --- | --- |
| N#CC=CS(=O)(=O)c1ccc(NS(=O)(=O)c2ccc3cc(S(=O)(=O)Nc4ccc(S(=O)(=O)C=CC#N)cc4)ccc3c2)cc1 [Example 37, naphthalene-2,6-bis-sulfon-[4-(2-cyanoethenesulfonyl)anilide]] | 50 (≈ 74.8 µM) | 1000 (≈ 1500 µM) | 20 (≈ 29.9 µM) | 20 (≈ 29.9 µM) | soluble | almost insoluble | – | – | – | – | – | – |
| N#CC=CS(=O)(=O)c1ccc(N=S=O)cc1 [Example 44, 3-(4-sulfinylimidobenzenesulfonyl)acrylonitrile] | 10 (≈ 39.3 µM) | 300 (≈ 1180 µM) | 10 (≈ 39.3 µM) | 20 (≈ 78.6 µM) | – | – | – | – | – | – | – | – |
| N#CC=CS(=O)(=O)c1ccc(NP(=O)(Nc2ccc(S(=O)(=O)C=CC#N)cc2)Nc2ccc(S(=O)(=O)C=CC#N)cc2)cc1 [Example 45, TRIS-N,N', N"-4-(2-CYANOETHENESULFONYL)PHENYL PHOSPHORAMIDE] | 5 (≈ 7.48 µM) | 300 (≈ 449 µM) | 50 (≈ 74.8 µM) | 50 (≈ 74.8 µM) | – | – | – | – | – | – | – | – |
| CN(C)P(=O)(Nc1ccc(S(=O)(=O)C=CC#N)cc1)N(C)C [Example 51, bis-dimethylamido-4-(2-cyanoethenesulfonyl)anilidophosphine oxide] | 20 (≈ 58.4 µM) | 100 (≈ 292 µM) | 10 (≈ 29.2 µM) | 20 (≈ 58.4 µM) | – | – | – | – | – | – | – | – |
| N#CC=CS(=O)(=O)c1ccc(NP(=O)(Nc2ccc(S(=O)(=O)C=CC#N)cc2)N(CCCl)CCCl)cc1 [Example 52, di-(2-chloroethyl)amido-di-4-(2-cyanoethenesulfonylanilido)phosphine oxide] | – | – | – | – | – | – | 10 ppm | 100 ppm | 10 ppm | 10 | – | – |
| N#CC=CS(=O)(=O)c1ccc(NP(=O)(OCC(Br)CBr)OCC(Br)CBr)cc1 (stereo not shown) [Example 56, 0,0-bis(2,3-dibromopropyl)-N-4-(2-cyanoethenesulfonyl)phenyl phosphoramide] | 10 (≈ 14.5 µM) | 100 (≈ 145 µM) | – | 10 (≈ 14.5 µM) | – | – | – | – | – | – | 10 (≈ 14.5 µM) | – |
| N#CC=CS(=O)(=O)c1ccc(N[PH](=O)Nc2ccc(S(=O)(=O)C=CC#N)cc2)cc1 [Example 57, di-4-(2-cyanoethenesulfonyl)anilidophosphine oxide] | 20 (≈ 43.2 µM) | 100 (≈ 216 µM) | 20 (≈ 43.2 µM) | 20 (≈ 43.2 µM) | – | – | – | – | – | – | – | somewhat unstable |
| N#CC=CS(=O)(=O)c1ccc(NP(=O)(Nc2ccc(S(=O)(=O)C=CC#N)cc2)c2ccccc2)cc1 [Example 58, phenyl-di-[4-(2-cyanoethenesulfonyl)anilido]phosphine oxide] | 10 (≈ 18.6 µM) | 100 (≈ 186 µM) | 10 (≈ 18.6 µM) | 20 (≈ 37.1 µM) | – | – | – | – | – | – | – | – |
| N#CC=CS(=O)(=O)c1ccc(NP(=S)(Nc2ccc(S(=O)(=O)C=CC#N)cc2)c2ccccc2)cc1 [Example 59, PHENYL-DI-[4-(2-CYANOETHENESULFONYL)ANILIDO]PHOSPHINE SULFIDE] | 50 (≈ 90.2 µM) | 500 (≈ 902 µM) | – | 50 (≈ 90.2 µM) | – | – | – | – | – | – | 50 (≈ 90.2 µM) | – |
| S=C([S-])NCCNC(=S)[S-].[Zn+2] [Zineb, zinc ethylenebis[dithiocarbamate], reference compound] | 300 | > 1000 | – | 300 | – | – | – | – | – | – | > 10000 | – |
| Oc1c(Cl)cc(Cl)c(Cl)c1Cc1c(O)c(Cl)cc(Cl)c1Cl [hexachlorophene, reference compound] | 5 (≈ 12.3 µM) | > 1000 | – | 5 (≈ 12.3 µM) | – | – | – | – | – | – | 20 (≈ 49.2 µM) | – |
| O=C(Nc1ccc(Br)cc1)c1cc(Br)cc(Br)c1O [tribromosalicylanilide, reference compound] | – | – | – | – | – | – | 100 ppm | > 1,000 ppm | 50 ppm | 100 | – | – |
| O=C(Nc1ccc(Cl)cc1)Nc1ccc(Cl)c(Cl)c1 [trichlorocarbanilide, reference compound] | – | – | – | – | – | – | > 10,000 ppm | 1,000 ppm | 10,000 ppm | 10 | – | – |
